Laboratory results reported in US10301259B2, “Beta-cryptoxanthin from plant source and a process for its preparation” (OMNIACTIVE HEALTH TECHNOLOGIES LIMITED, priority 2013, dated 2019).

Columns and labels:
OVX rat model = test: Anti-resorptive / anti-osteoporotic activity in OVX rat model (overall conclusions); format: in vivo, Wistar rats
[1] = under similar conditions; Burri et al. (2011); cited from earlier work

CC1=C(/C=C/C(C)=C/C=C/C(C)=C/C=C/C=C(C)/C=C/C=C(C)/C=C/C2=C(C)CC(O)CC2(C)C)C(C)(C)CCC1 (stereo not drawn) [beta-cryptoxanthin, beta,beta-caroten-3-ol]
Anti-osteoporotic activity (OVX rat model): significant anti-osteoporotic activity | Bioavailability relative to beta-carotene [1]: ~7 fold
